{
  "source": "BindingDB's records for doi:10.1110/ps.03533004",
  "about": "(University of Copenhagen, 2004)",
  "key": {"[1]": {"target": "Dihydroorotate dehydrogenase (quinone), mitochondrial (Rattus norvegicus, UniProt Q63707)", "sequence (Q63707 whole entry)": "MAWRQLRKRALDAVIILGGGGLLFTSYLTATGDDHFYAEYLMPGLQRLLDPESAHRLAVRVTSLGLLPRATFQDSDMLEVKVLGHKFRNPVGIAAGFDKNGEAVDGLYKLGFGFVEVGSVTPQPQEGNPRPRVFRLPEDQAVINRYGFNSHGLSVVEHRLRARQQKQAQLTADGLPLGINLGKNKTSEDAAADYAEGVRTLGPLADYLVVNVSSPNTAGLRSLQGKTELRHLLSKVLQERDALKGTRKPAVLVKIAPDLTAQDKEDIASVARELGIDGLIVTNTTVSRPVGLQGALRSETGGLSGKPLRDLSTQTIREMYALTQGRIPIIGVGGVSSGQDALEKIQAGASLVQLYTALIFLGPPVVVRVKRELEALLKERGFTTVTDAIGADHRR", "assay": "Enzyme Inhibition Assay", "conditions": "pH 8; 30 °C"}, "[2]": {"target": "T1, Dihydroorotate dehydrogenase (quinone), mitochondrial [30-395] (Rattus norvegicus, UniProt Q63707)", "T1 construct": "30-395", "T1 sequence (Q63707 30-395)": "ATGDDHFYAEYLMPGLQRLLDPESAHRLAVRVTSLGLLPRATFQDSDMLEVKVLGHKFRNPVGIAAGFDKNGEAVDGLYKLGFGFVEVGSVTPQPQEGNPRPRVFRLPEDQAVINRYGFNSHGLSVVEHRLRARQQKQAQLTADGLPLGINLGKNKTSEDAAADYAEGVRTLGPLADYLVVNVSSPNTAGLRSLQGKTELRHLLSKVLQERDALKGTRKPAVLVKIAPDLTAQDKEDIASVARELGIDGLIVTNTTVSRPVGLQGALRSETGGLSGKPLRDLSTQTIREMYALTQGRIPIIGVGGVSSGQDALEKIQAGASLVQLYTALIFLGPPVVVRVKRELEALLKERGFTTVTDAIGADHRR", "assay": "Enzyme Inhibition Assay", "conditions": "pH 8; 30 °C"}},
  "note": "pIC50: −log10 of the molar value.",
  "data": [
    {"molecule": "O=C1C(=O)C(C2CCC(c3ccc(Cl)cc3)CC2)C(=O)c2ccccc21", "note": "(configuration not stated) [Mepron]", "values": [
      {"measurement": "pIC50", "setting": "[1]", "result": 6.16},
      {"measurement": "pIC50", "setting": "[2]", "result": 6.04}
    ]}
  ]
}
